Consider 16 compounds from US11999727B2 (Tango Therapeutics, Inc., priority 2020, dated 2024).

In experiment [1] the target is T1, PRMT5 (Homo sapiens, UniProt O14744).
T1 construct: purchased Viva (custom protein)
Briefly: PRMT5 biochemical IC50 assay with SAM as cofactor. As to conditions: PRMT5, SAM as cofactor; read-out: SAM IC50.

The test system of experiment [2] is HAP1 MTAP-intact cell line. Briefly: SDMA in-cell western assay, HAP1 MTAP-intact. It is filed as cell-based. As to conditions: Homo sapiens, HAP1, SDMA in-cell western, HAP1 MTAP-intact; read-out: MTAP HAP1 intact IC50. Put shortly:
(§1)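 Isogenic HAP1 pair: the MTAP-intact line expresses endogenous MTAP, and the deleted line is MTAP-null. Symmetric dimethylarginine was detected by in-cell western and IC50 values derived for each line.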

Experiment [3] deals with HAP1 MTAP-deleted cell line. The experiment can be described thus: Viability assay, MTAP-deleted cell line. As to conditions: Homo sapiens, read-out: HAP1 MTAP deleted viability. It is filed as cell-based. The source says: Table 1 additionally indicates IC50 values in a viability assay for the MTAP-deleted cell line (column 10), indicating the effect of treatment with compound on cell survival.

Experiment [4] concerns the target T1, PRMT5. The experiment can be described thus: PRMT5 biochemical IC50 assay with no cofactor. As to conditions: PRMT5, no cofactor. The text has this: Table 1 indicates IC50 values (μM) against PRMT5 for exemplary compounds in the presence of SAM as cofactor, with no cofactor, and with MTA as cofactor, respectively (columns 4-6). […] Ki values can be calculated from the IC50 values as described in the Examples section. As detailed in the Examples section, for the assay performed in the presence of SAM, IC50=Ki×1.5 (Ki=IC50/1.5).

For experiment [5], the target named is T1, PRMT5. Briefly: PRMT5 biochemical IC50 assay with MTA as cofactor. As to conditions: PRMT5, MTA as cofactor; read-out: MTA IC50.
Experiment [6] has as its system HAP1 MTAP-deleted cell line. The experiment can be described thus: SDMA in-cell western assay, HAP1 MTAP-deleted. It is filed as cell-based. As to conditions: for IC50: Homo sapiens, HAP1, SDMA in-cell western, HAP1 MTAP-deleted; for MTAP intact/deleted ratio: SDMA in-cell western. The method in brief: as §1
Where [7] appears, read: HAP1, viability assay, MTAP-deleted cell line.
Where [8] appears, read: read-out: No Cofactor/ rel IC50.
[9] abbreviates: read-out: HAP 1 MTAP deleted IC50.
The mark [10] stands for this setting: IC50 ratio HAP1 MTAP-intact / HAP1 MTAP-deleted.
Setting [11] is: read-out: HAP1 MTAP deleted IC50.
[12] abbreviates: HAP1, viability IC50, MTAP-deleted cell line.
The mark [13] stands for this setting: HAP1, viability, HAP1 MTAP-deleted cell line.

T1 sequence (O14744 whole entry): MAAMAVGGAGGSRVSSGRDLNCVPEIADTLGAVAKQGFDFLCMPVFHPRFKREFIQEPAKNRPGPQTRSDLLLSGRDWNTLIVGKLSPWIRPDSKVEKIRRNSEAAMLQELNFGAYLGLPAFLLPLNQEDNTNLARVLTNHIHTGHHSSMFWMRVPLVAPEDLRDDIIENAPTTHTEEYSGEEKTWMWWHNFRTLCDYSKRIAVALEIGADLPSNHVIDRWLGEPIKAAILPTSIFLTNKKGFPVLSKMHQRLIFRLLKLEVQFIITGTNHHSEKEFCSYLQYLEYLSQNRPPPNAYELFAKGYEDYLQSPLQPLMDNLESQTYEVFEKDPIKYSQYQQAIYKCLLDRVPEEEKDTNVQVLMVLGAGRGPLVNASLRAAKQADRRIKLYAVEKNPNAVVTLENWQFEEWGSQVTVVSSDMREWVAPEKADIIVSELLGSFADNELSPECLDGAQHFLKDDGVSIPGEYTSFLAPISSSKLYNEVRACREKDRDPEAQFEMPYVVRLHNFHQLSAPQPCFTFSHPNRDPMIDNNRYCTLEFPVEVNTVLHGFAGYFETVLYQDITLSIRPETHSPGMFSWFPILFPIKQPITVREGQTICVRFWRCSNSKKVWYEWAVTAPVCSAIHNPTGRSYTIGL
T1 sequence (Q9BQA1 whole entry partner): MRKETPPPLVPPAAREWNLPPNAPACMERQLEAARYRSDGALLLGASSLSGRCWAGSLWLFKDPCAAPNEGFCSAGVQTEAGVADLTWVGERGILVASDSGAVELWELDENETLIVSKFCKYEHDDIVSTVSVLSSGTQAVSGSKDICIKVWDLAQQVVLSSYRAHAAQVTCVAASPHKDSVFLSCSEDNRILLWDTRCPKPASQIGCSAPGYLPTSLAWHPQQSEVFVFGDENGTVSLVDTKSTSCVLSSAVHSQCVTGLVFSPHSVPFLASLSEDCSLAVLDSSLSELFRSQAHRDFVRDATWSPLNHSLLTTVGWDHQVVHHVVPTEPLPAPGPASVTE

With `Cc1cc(NC(=O)C(=O)N2CCCC[C@H]2c2cccs2)cnc1N` (single isomer, unassigned) [Compound 22], the IC50 in experiment [1] was over 500 nM; in experiment [2] it was over 1000 nM; in experiment [3] (setting [7]) it was over 10000 nM; in experiment [4] (setting [8]), over 500 nM; in experiment [5], 50 to 500 nM; in experiment [6] (setting [9]) it was over 1000 nM. Also, in experiment [6] (setting [10]), the “MTAP intact/deleted ratio” value is “B (an IC50 ratio greater than or equal to 3 fold but lower than 10 fold)”.
Take `COc1cccc([C@@H]2CC[C@@H](C)CN2C(=O)C(=O)Nc2cncc(C(N)=O)c2)c1` (racemic) [Compound 214, rac-5-{2-[(2R,5S)-2-(3-Methoxyphenyl)-5-methylpiperidin-1-yl]-2-oxoacetamido}pyridine-3-carboxamide]: the IC50 was 50 to 500 nM in experiment [1]; over 1000 nM in experiment [2]; 1000 to 10000 nM in experiment [3] (setting [7]); 50 to 500 nM in experiment [4] (read-out: No Cofactor/rel IC50); under 50 nM in experiment [5]; under 100 nM in experiment [6] (setting [11]).
Turning to `CC[C@@H]1CC[C@@H](c2ccccc2)N(C(=O)C(=O)Nc2cncc(C(N)=O)c2)C1` (single isomer, unassigned) [Compound 576], the IC50 in experiment [1] was over 500 nM; in experiment [2], over 1000 nM; in experiment [3] (setting [12]), over 10000 nM; in experiment [4] (read-out: No Cofactor/rel IC50), over 500 nM; in experiment [5] it was over 500 nM; in experiment [6] (setting [9]), over 1000 nM. Further, in experiment [6] (setting [10]), the MTAP intact/deleted ratio result is on record as “C (an IC50 ratio of less than 3 fold)”.
`CCc1cc(NC(=O)C(=O)N2C[C@@H](C)CC[C@@H]2c2cccc(OC[C@@H](C)N(C)C)c2)cnc1N` [Compound 1290, N-(6-amino-5-ethylpyridin-3-yl)-2-((2R,5S)-2-(3-(2-(dimethylamino)propoxy)phenyl)-5-methylpiperidin-1-yl)-2-oxoacetamide]: the IC50 in experiment [1] was 50 to 500 nM; in experiment [2], 100 to 1000 nM; in experiment [3] (setting [13]), under 1000 nM; in experiment [4] (setting [8]) it was under 50 nM; in experiment [5], under 50 nM; in experiment [6] (setting [9]) it was under 100 nM. Moreover, in experiment [6] (setting [10]), the “MTAP intact/deleted ratio” value is “A (an IC50 ratio greater than or equal to 10 fold)”.
Take `C[C@@H]1CC[C@@H](c2cccc(C(N)=O)c2)N(C(=O)C(=O)Nc2cncc(C(N)=O)c2)C1` (racemic) [Compound 125, rac-5-{2-[(2R,5S)-2-(3-Carbamoylphenyl)-5-methylpiperidin-1-yl]-2-oxoacetamido}pyridine-3-carboxamide]: the IC50 in experiment [1] was 50 to 500 nM; in experiment [2], over 1000 nM; in experiment [3] (setting [7]) it was over 10000 nM; in experiment [4] (setting [8]) it was 50 to 500 nM; in experiment [5] it was 50 to 500 nM; in experiment [6] (setting [9]), over 1000 nM. The “MTAP intact/deleted ratio” value in experiment [6] (setting [10]) was “B (an IC50 ratio greater than or equal to 3 fold but lower than 10 fold)”.
Consider `NC(=O)c1cncc(NC(=O)C(=O)N2CCC3(CCCCC3)CC2)c1` [Compound 203, 5-[[2-(3-Azaspiro[5.5]undecan-3-yl)-2-oxo-acetyl]amino]pyridine-3-carboxamide], for which the IC50 was 50 to 500 nM in experiment [1]; over 1000 nM in experiment [2]; over 10000 nM in experiment [3] (setting [7]); over 500 nM in experiment [4] (read-out: No Cofactor/rel IC50); under 50 nM in experiment [5]; 100 to 1000 nM in experiment [6] (setting [11]). The MTAP intact/deleted ratio entry in experiment [6] (setting [10]) is reported as “A (an IC50 ratio greater than or equal to 10 fold)”.
For `Cc1cc(NC(=O)C(=O)N2C[C@H](C)CC[C@H]2c2cc(F)cc(Cl)c2)cnc1N` (single isomer, unassigned) [Compound 659], the IC50 in experiment [1] was 50 to 500 nM; in experiment [2] it was 100 to 1000 nM; in experiment [3] (setting [12]), under 1000 nM; in experiment [4] (read-out: No Cofactor/rel IC50), under 50 nM; in experiment [5], under 50 nM; in experiment [6] (setting [9]), under 100 nM. Besides, in experiment [6] (setting [10]), the MTAP intact/deleted ratio entry is given as “A (an IC50 ratio greater than or equal to 10 fold)”.
For the compound `NC(=O)c1cncc(NC(=O)C(=O)N2CCC3CCCCCC3C2)c1` (racemic) [Compound 133, 5-(2-{Decahydro-1H-cyclohepta[c]pyridin-2-yl}-2-oxoacetamido)pyridine-3-carboxamide], the IC50 is 50 to 500 nM in experiment [1]; over 1000 nM in experiment [2]; over 10000 nM in experiment [3] (setting [7]); over 500 nM in experiment [4] (setting [8]); 50 to 500 nM in experiment [5]; over 1000 nM in experiment [6] (setting [9]). In addition, the “MTAP intact/deleted ratio” value in experiment [6] (setting [10]) was “B (an IC50 ratio greater than or equal to 3 fold but lower than 10 fold)”.
As to `Cc1cc(NC(=O)C(=O)N2C[C@@H](C)CC[C@@H]2c2cccc(N3CCN(C)CC3)c2)cnc1N` (single isomer, unassigned) [Compound 1229], the IC50 is under 50 nM in experiment [1]; under 100 nM in experiment [2]; under 1000 nM in experiment [3] (setting [7]); under 50 nM in experiment [4] (read-out: No Cofactor/rel IC50); under 50 nM in experiment [5]; under 100 nM in experiment [6] (setting [11]). The MTAP intact/deleted ratio entry in experiment [6] (IC50 ratio HAP1 MTAP-intact vs HAP1 MTAP-deleted) is “B (an IC50 ratio greater than or equal to 3 fold but lower than 10 fold)”.
As for `C[C@@H]1CC[C@@H](c2ccc(N3CCCC3)nc2)N(C(=O)C(=O)Nc2cncc(C(N)=O)c2)C1` (racemic) [Compound 207, rac-5-{2-[(2R,5S)-5-methyl-2-[6-(pyrrolidin-1-yl)pyridin-3-yl]piperidin-1-yl]-2-oxoacetamido}pyridine-3-carboxamide], the IC50 in experiment [1] was over 500 nM; in experiment [2] it was over 1000 nM; in experiment [3] (setting [7]), 1000 to 10000 nM; in experiment [4] (read-out: No Cofactor/rel IC50), 50 to 500 nM; in experiment [5] it was 50 to 500 nM; in experiment [6] (setting [11]), 100 to 1000 nM. Also, the MTAP intact/deleted ratio entry in experiment [6] (setting [10]) is given as “A (an IC50 ratio greater than or equal to 10 fold)”.
As to `C[C@@H]1CC[C@@H](c2ccc(F)nc2)N(C(=O)C(=O)Nc2cncc(C(N)=O)c2)C1` (racemic) [Compound 276, rac-5-{2-[(2R,5S)-2-(6-Fluoropyridin-3-yl)-5-methylpiperidin-1-yl]-2-oxoacetamido}pyridine-3-carboxamide], the IC50 in experiment [1] was 50 to 500 nM; in experiment [2], over 1000 nM; in experiment [3] (setting [7]), over 10000 nM; in experiment [4] (read-out: No Cofactor/rel IC50) it was 50 to 500 nM; in experiment [5], under 50 nM; in experiment [6] (setting [11]), 100 to 1000 nM. In addition, in experiment [6] (setting [10]), the MTAP intact/deleted ratio result was “A (an IC50 ratio greater than or equal to 10 fold)”.
Consider `C[C@@H]1CC[C@@H](c2ccc(-c3cc[nH]n3)cc2)N(C(=O)C(=O)Nc2cncc(C(N)=O)c2)C1` (single isomer, unassigned) [Compound 627], for which the IC50 is over 500 nM in experiment [1]; over 1000 nM in experiment [2]; over 10000 nM in experiment [3] (setting [12]); over 500 nM in experiment [4] (read-out: No Cofactor/rel IC50); over 500 nM in experiment [5]; 100 to 1000 nM in experiment [6] (setting [9]). Also, the MTAP intact/deleted ratio result in experiment [6] (setting [10]) is “A (an IC50 ratio greater than or equal to 10 fold)”.
As to `Cc1cc(NC(=O)C(=O)N2C[C@H](C)CC[C@H]2c2ccc(NS(C)(=O)=O)cc2)cnc1C` (single isomer, unassigned) [Compound 630], the IC50 is over 500 nM in experiment [1]; over 1000 nM in experiment [2]; over 10000 nM in experiment [3] (setting [12]); over 500 nM in experiment [4] (read-out: No Cofactor/rel IC50); over 500 nM in experiment [5]; 100 to 1000 nM in experiment [6] (setting [9]). Also, in experiment [6] (setting [10]), the MTAP intact/deleted ratio entry is listed as “A (an IC50 ratio greater than or equal to 10 fold)”.
For the compound `C[C@H]1CC[C@H]([C@H]2CC[C@@H](O)CC2)N(C(=O)C(=O)Nc2cncc(C(N)=O)c2)C1` (single isomer, unassigned) [Compound 382], the IC50 in experiment [1] was over 500 nM; in experiment [2], over 1000 nM; in experiment [3] (setting [7]) it was over 10000 nM; in experiment [4] (read-out: No Cofactor/rel IC50), over 500 nM; in experiment [5], over 500 nM; in experiment [6] (setting [11]), over 1000 nM. In addition, the MTAP intact/deleted ratio entry in experiment [6] (setting [10]) is on record as “C (an IC50 ratio of less than 3 fold)”.
As to `COc1ncc(NC(=O)C(=O)N2C[C@@H](C)CC[C@@H]2c2ccc3sc(C4CN(C)C4)nc3c2)cc1C(N)=O` [Compound 1257], the IC50 in experiment [1] is under 50 nM; in experiment [2] it was 100 to 1000 nM; in experiment [3] (setting [13]), under 1000 nM; in experiment [4] (setting [8]) it was under 50 nM; in experiment [5] it was under 50 nM; in experiment [6] (setting [9]) it was under 100 nM. Further, the “MTAP intact/deleted ratio” value in experiment [6] (setting [10]) is recorded as “A (an IC50 ratio greater than or equal to 10 fold)”.
For `C[C@@H]1CC[C@@H](c2ccc3[nH]ncc3c2F)N(C(=O)C(=O)Nc2cncc(C(N)=O)c2)C1` (single isomer, unassigned) [Compound 612], the IC50 is 50 to 500 nM in experiment [1]; over 1000 nM in experiment [2]; 1000 to 10000 nM in experiment [3] (setting [12]); 50 to 500 nM in experiment [4] (read-out: No Cofactor/rel IC50); under 50 nM in experiment [5]; under 100 nM in experiment [6] (setting [9]). In experiment [6] (setting [10]), the MTAP intact/deleted ratio entry is given as “A (an IC50 ratio greater than or equal to 10 fold)”.
